Results reported in patent publication US9382254B2, “Compounds and pharmaceutical compositions thereof for the treatment of cystic fibrosis” (Galapagos NV, priority 2013, dated 2016).

Tests used:
Format in all cases: cell-based
CFTR ΔF508 mutant [1] = molecular target: T1, CFTR ΔF508 mutant (Homo sapiens, UniProt P13569, DEL508-508); test: YFP-halide influx assay for the CFTR-ΔF508 mutation (384 well, FDSS/μCell); settings: CFBE41o- cells, CFTR-ΔF508, 1×D-PBS, fluorescence after 36 seconds
T1 construct: expressed in transfected cells; host or cells: CFBE41o- (adenoviral transduction)
In short: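 Potentiator read-out as 1−F/F0, F taken 36 s after iodide addition, EC50 fitted against compound concentration. Cells: CFBE41o- expressing ΔF508 CFTR plus halide-sensitive YFP via adenovirus, rescued by 27 °C for 24 h or 24 h modulator at 37 °C.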

CFTR G551D mutant = molecular target: T2, CFTR G551D mutant (Homo sapiens, UniProt P13569, G551D); test: YFP-halide influx assay for the CFTR-G551D mutation; settings: HEK293 cells, forskolin 10.67 μM
T2 construct: expressed in transfected cells; host or cells: HEK293 (reverse transfection with plasmid)
In short: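 HEK293 cells reverse-transfected with CFTR G551D and YFP H148Q/I152L/F47L halide sensor, expressed 24 h at 37 °C. Iodide-induced fluorescence quench recorded 7 s after I− injection; response = 1−F/F0, with EC50 from plot against compound concentration.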

CFTR ΔF508 mutant [2] = molecular target: T1, CFTR ΔF508 mutant; test: YFP-halide influx assay for the CFTR-ΔF508 mutation, PBS buffer (96 well); settings: CFBE41o- cells, forskolin 10.67 μM
Text: The YFP halide influx assay measures the functionality of the cystic fibrosis Transmembrane Conductance regulator (CFTR) channels in the cystic fibrosis bronchial epithelium cell line CFBE41o-. The assay is used to evaluate the capacity of compounds to increase the open probability of existing CFTR channels in the membrane. It makes use of the observation that the yellow fluorescent protein (YFP) variant YFP H148Q, I152L has its fluorescence substantially quenched by halide ions like Cl^− and I^−. (Galietta, Haggie, & Verkman, 2001) (Nagai, et al., 2002)
For this purpose, CFBE41o-cells are seeded in 96 well plates (6000 CFBE cells/well). One day after seeding, the CFBE cells are transduced with adenoviral vectors that direct the expression of the CFTR ΔF508 mutant and of the YFP reporter. Cells are incubated at 27° C., 5% CO2 for 24 hours so as to allow for the proper folding and migration to the membrane of the CFTR channel or treated with a CFTR modulator during 24 hours at 37° C.
The I^− induced quenching of fluorescence is recorded immediately after injection of I^− for 7 seconds. The capacity of a compound to increase the channel opening is directly correlated with the decrease in fluorescence, and is expressed as (1-(fluorescence after 7 seconds (F)/fluorescence before injection (F0))) and an EC50 can be derived from a (1-F/F0) vs compound concentration plot.

T2 sequence (P13569 whole entry G551D): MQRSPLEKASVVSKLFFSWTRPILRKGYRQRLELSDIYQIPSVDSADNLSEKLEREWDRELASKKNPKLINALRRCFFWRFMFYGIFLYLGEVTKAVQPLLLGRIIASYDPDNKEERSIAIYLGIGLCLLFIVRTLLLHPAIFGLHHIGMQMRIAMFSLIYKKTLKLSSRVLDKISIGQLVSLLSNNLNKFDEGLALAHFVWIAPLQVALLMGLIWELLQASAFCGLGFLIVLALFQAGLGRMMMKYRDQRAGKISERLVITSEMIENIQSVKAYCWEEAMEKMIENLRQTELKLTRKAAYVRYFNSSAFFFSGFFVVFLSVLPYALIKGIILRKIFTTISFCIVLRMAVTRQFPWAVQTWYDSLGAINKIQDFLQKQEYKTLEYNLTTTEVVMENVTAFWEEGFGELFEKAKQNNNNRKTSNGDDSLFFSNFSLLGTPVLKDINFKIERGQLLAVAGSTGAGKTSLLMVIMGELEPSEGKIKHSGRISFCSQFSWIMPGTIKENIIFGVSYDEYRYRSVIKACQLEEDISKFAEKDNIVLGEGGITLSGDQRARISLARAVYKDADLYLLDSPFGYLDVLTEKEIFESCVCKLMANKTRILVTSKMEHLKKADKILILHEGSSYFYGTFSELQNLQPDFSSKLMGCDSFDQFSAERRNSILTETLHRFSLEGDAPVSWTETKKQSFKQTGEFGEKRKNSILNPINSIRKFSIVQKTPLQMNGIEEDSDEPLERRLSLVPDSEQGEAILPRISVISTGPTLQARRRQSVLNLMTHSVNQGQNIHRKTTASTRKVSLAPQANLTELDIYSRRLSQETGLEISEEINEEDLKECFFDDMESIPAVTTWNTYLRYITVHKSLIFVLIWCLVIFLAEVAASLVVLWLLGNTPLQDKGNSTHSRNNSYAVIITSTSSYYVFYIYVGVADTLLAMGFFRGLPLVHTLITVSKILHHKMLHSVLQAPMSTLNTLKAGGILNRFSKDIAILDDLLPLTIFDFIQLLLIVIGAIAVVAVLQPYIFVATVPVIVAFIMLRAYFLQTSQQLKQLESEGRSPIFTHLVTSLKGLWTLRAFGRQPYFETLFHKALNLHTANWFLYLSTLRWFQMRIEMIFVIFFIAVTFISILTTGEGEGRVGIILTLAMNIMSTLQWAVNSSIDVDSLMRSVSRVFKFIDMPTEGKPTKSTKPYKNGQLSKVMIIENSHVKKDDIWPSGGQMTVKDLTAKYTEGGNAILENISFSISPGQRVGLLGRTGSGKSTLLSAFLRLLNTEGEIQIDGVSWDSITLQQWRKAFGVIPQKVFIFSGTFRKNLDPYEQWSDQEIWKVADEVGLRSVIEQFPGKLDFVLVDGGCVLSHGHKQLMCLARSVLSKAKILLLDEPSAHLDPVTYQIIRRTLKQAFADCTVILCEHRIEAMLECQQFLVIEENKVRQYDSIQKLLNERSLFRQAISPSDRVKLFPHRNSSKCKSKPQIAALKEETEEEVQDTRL
T1 sequence (P13569 with tags, fused parts or gaps DEL508-508): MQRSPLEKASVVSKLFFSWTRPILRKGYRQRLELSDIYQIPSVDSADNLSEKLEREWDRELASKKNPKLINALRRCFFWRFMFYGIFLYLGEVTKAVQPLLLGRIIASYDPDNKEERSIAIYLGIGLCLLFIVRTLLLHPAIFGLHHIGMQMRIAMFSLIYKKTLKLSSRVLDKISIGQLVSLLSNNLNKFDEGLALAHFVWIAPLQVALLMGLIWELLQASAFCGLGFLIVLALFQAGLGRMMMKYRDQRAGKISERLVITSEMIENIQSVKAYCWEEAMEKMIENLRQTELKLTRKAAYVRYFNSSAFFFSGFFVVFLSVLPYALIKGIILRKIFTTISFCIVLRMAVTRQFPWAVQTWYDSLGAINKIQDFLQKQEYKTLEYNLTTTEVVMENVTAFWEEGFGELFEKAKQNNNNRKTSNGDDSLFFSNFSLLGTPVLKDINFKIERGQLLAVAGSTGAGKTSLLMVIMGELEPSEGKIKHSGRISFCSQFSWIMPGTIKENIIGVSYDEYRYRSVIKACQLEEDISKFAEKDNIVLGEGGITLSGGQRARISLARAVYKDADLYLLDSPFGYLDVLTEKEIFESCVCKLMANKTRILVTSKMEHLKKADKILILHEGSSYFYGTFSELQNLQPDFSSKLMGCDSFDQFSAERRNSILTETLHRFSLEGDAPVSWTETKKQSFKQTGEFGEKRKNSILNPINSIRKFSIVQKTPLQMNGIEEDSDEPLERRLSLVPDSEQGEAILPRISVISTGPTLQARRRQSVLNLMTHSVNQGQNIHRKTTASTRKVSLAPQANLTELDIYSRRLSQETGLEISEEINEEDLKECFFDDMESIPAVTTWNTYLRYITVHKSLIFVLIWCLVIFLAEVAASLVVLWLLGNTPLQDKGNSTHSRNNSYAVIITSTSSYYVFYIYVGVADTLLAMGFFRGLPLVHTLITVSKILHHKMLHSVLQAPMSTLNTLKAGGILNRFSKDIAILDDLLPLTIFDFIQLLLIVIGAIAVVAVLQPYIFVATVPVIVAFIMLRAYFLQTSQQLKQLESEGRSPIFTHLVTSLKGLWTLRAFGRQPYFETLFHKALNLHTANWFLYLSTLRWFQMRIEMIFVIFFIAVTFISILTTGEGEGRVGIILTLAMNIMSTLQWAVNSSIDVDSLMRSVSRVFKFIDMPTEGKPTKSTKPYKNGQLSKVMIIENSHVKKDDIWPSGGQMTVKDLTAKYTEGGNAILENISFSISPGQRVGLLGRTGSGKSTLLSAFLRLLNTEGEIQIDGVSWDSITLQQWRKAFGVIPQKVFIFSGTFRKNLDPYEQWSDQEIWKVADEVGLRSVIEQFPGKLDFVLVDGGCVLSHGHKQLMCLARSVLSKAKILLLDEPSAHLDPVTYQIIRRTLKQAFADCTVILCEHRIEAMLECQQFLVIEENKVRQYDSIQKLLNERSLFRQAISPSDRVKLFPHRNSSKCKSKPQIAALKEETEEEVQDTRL

EC50 (CFTR ΔF508 mutant [1]) [nM] | EC50 (CFTR G551D mutant) [nM] | EC50 (CFTR ΔF508 mutant [2]) [nM] | EC50 (CFTR G551D mutant; class symbol) [nM] | Compound
26.5 | 295 | 36.2 | – | NC(=O)c1cc(S(=O)(=O)c2ccc(Cl)cc2)sc1NC(=O)C1(O)CC1 [Compound 225, 5-(4-chlorophenylsulfonyl)-2-(1-hydroxycyclopropanecarboxamido) thiophene-3-carboxamide]
– | 1050 | 128 | – | CN(C1CC1)S(=O)(=O)c1cc(C(N)=O)c(NC(=O)C2(O)CC2)s1 [Compound 232, 5-(N-cyclopropyl-N-methylsulfamoyl)-2-(1-hydroxycyclopropanecarboxamido) thiophene-3-carboxamide]
– | – | 130 | > 1000 | CC(C)N(C(C)C)S(=O)(=O)c1cc(C(N)=O)c(NC(=O)C2(O)CC2)s1 [Compound 233, 5-(N,N-diisopropylsulfamoyl)-2-(1-hydroxycyclopropanecarboxamido) thiophene-3-carboxamide]
76.6 | – | 46.8 | – | COc1ccc(CN(C)S(=O)(=O)c2cc(C(N)=O)c(NC(=O)C3(O)CC3)s2)cc1 [Compound 235, 2-(1-hydroxycyclopropanecarboxamido)-5-(N-(4-methoxybenzyl)-N-methylsulfamoyl) thiophene-3-carboxamide]
108 | – | 66.3 | – | CC(C)N(c1ccc(F)cc1)S(=O)(=O)c1cc(C(N)=O)c(NC(=O)C2(O)CC2)s1 [Compound 237, 5-(N-(4-fluorophenyl)-N-isopropylsulfamoyl)-2-(1-hydroxycyclopropanecarboxamido) thiophene-3-carboxamide]
– | 214 | 49.1 | – | NC(=O)c1cc(S(=O)(=O)c2ccc(F)cc2)sc1NC(=O)C(O)C(F)(F)F (stereo not shown) [Compound 252, 5-(4-fluorophenylsulfonyl)-2-(3,3,3-trifluoro-2-hydroxypropanamido) thiophene-3-carboxamide]
157 | – | 102 | – | CC1CN(S(=O)(=O)c2cc(C(N)=O)c(NC(=O)c3ccccc3C(F)(F)F)s2)CC(C)O1 (stereo not shown) [Compound 258, 5-(2,6-dimethylmorpholinosulfonyl)-2-(2-(trifluoromethyl)benzamido) thiophene-3-carboxamide]
87.5 | – | 94.4 | – | CC1(C)COCCN1S(=O)(=O)c1cc(C(N)=O)c(NC(=O)c2ccccc2C(F)(F)F)s1 [Compound 260, 5-(3,3-dimethylmorpholinosulfonyl)-2-(2-(trifluoromethyl)benzamido) thiophene-3-carboxamide]
92.4 | – | 31.9 | – | COCCN(C1CC1)S(=O)(=O)c1cc(C(N)=O)c(NC(=O)c2ccccc2C(F)(F)F)s1 [Compound 261, 5-(N-cyclopropyl-N-(2-methoxyethyl)sulfamoyl)-2-(2-(trifluoromethyl)benzamido) thiophene-3-carboxamide]
115 | – | 69.1 | – | CN(C1CC1)S(=O)(=O)c1cc(C(N)=O)c(NC(=O)c2ccccc2C(F)(F)F)s1 [Compound 262, 5-(N-cyclopropyl-N-methylsulfamoyl)-2-(2-(trifluoromethyl)benzamido) thiophene-3-carboxamide]
– | – | 197 | – | NC(=O)c1cc(S(=O)(=O)c2ccc(F)cc2)sc1NC(=O)c1ccc(F)cn1 [Compound 266, N-(3-carbamoyl-5-(4-fluorophenylsulfonyl)thiophen-2-yl)-5-fluoropicolinamide]
– | – | 653 | – | NC(=O)c1cc(S(=O)(=O)c2ccc(F)cc2)sc1Nc1ccccn1 [Compound 267, 5-(4-fluorophenylsulfonyl)-2-(pyridin-2-ylamino) thiophene-3-carboxamide]
– | – | 195 | – | COC(C)(C)C(=O)Nc1sc(S(=O)(=O)c2ccc(F)cc2)cc1C(N)=O [Compound 268, 5-(4-fluorophenylsulfonyl)-2-(2-methoxy-2-methylpropanamido) thiophene-3-carboxamide]
– | – | 231 | – | CC(C)=CC(=O)Nc1sc(S(=O)(=O)c2ccc(F)cc2)cc1C(N)=O [Compound 274, 5-(4-fluorophenylsulfonyl)-2-(3-methylbut-2-enamido) thiophene-3-carboxamide]
– | 1720 | 220 | – | NC(=O)c1cc(S(=O)(=O)c2ccc(F)cc2)sc1NC(=O)C(O)(C(F)(F)F)C(F)(F)F [Compound 275, 5-(4-fluorophenylsulfonyl)-2-(3,3,3-trifluoro-2-hydroxy-2-(trifluoromethyl)propanamido) thiophene-3-carboxamide]
– | 3330 | 777 | – | COCCOC(C)C(=O)Nc1sc(S(=O)(=O)c2ccc(F)cc2)cc1C(N)=O (stereo not shown) [Compound 276, 5-(4-fluorophenylsulfonyl)-2-(2-(2-methoxyethoxy)propanamido) thiophene-3-carboxamide]
– | 3330 | 389 | – | NC(=O)c1cc(S(=O)(=O)c2ccc(F)cc2)sc1NC(=O)C1COCCO1 (stereo not shown) [Compound 277, N-(3-carbamoyl-5-(4-fluorophenylsulfonyl)thiophen-2-yl)-1,4-dioxane-2-carboxamide]
– | – | 1400 | > 1000 | Cc1cccnc1S(=O)(=O)c1cc(C(N)=O)c(NC(=O)C(C)(C)O)s1 [Compound 278, 2-(2-hydroxy-2-methylpropanamido)-5-(3-methylpyridin-2-ylsulfonyl) thiophene-3-carboxamide]
– | 3330 | 157 | – | COCCOc1cc(F)ccc1S(=O)(=O)c1cc(C(N)=O)c(NC(=O)C(C)(C)O)s1 [Compound 282, 5-(4-fluoro-2-(2-methoxyethoxy)phenylsulfonyl)-2-(2-hydroxy-2-methylpropanamido) thiophene-3-carboxamide]
– | – | > 1000 | > 1000 | Cn1ccnc1S(=O)(=O)c1cc(C(N)=O)c(NC(=O)C(C)(C)O)s1 [Compound 285, 2-(2-hydroxy-2-methylpropanamido)-5-(1-methyl-1H-imidazol-2-ylsulfonyl) thiophene-3-carboxamide]
– | – | 2360 | > 1000 | NC(=O)c1cc(S(=O)(=O)c2ccc(F)cc2)sc1NC(=O)C(O)CO (stereo not shown) [Compound 288, 2-(2,3-dihydroxypropanamido)-5-(4-fluorophenylsulfonyl) thiophene-3-carboxamide]
– | 1330 | 228 | – | CC(=O)OC(C)(C)C(=O)Nc1sc(S(=O)(=O)c2ccccc2C(C)C)cc1C(N)=O [Compound 294, 1-(3-carbamoyl-5-(2-isopropylphenylsulfonyl)thiophen-2-ylamino)-2-methyl-1-oxopropan-2-yl acetate]
– | – | 727 | > 1000 | CC(C)(O)C(=O)Nc1sc(S(=O)(=O)c2cc(F)ccc2O)cc1C(N)=O [Compound 296, 5-(5-fluoro-2-hydroxyphenylsulfonyl)-2-(2-hydroxy-2-methylpropanamido) thiophene-3-carboxamide]
– | 3330 | 367 | – | Cc1ccc(S(=O)(=O)c2cc(C(N)=O)c(NC(=O)C(C)(C)O)s2)cn1 [Compound 297, 2-(2-Hydroxy-2-methyl-propionylamino)-5-(6-methyl-pyridine-3-sulfonyl)-thiophene-3-carboxylic acid amide]
– | 3330 | 915 | – | Cc1cc(S(=O)(=O)c2cc(C(N)=O)c(NC(=O)C(C)(C)O)s2)ccn1 [Compound 299, 2-(2-Hydroxy-2-methyl-propionylamino)-5-(2-methyl-pyridine-4-sulfonyl)-thiophene-3-carboxylic acid amide]
– | – | 174 | > 1000 | COc1ccccc1S(=O)(=O)c1cc(C(N)=O)c(NC(=O)C(C)(C)O)s1 [Compound 301, 2-(2-hydroxy-2-methylpropanamido)-5-(2-methoxyphenylsulfonyl) thiophene-3-carboxamide]
– | – | 254 | > 1000 | COCCN(C1CC1)S(=O)(=O)c1cc(C(N)=O)c(NC(=O)C(C)(C)O)s1 [Compound 306, 5-(N-cyclopropyl-N-(2-methoxyethyl)sulfamoyl)-2-(2-hydroxy-2-methylpropanamido) thiophene-3-carboxamide]
– | 1030 | 234 | – | CC(C)(O)C(=O)Nc1sc(S(=O)(=O)N2CCC(F)(F)CC2)cc1C(N)=O [Compound 308, 5-(4,4-difluoropiperidin-1-ylsulfonyl)-2-(2-hydroxy-2-methylpropanamido) thiophene-3-carboxamide]
– | 2860 | 115 | – | CC1(C)CN(S(=O)(=O)c2cc(C(N)=O)c(NC(=O)C(C)(C)O)s2)C1 [Compound 309, 5-(3,3-Dimethyl-azetidine-1-sulfonyl)-2-(2-hydroxy-2-methyl-propionylamino)-thiophene-3-carboxylic acid amide]
